Assay results: paper PMC2771923 (Journal of medicinal chemistry, 2008)

Experiments:
[1] = target: PRWT (optimized wild-type HIV-1 PR) (Human immunodeficiency virus type 1 group M subtype B, UniProt P04585, C555A/C583A/L521I/L551I/Q495K)
[2] = target: PRV32I (V32I mutant HIV-1 PR) (Human immunodeficiency virus type 1 group M subtype B, UniProt P04585, C555A/C583A/L521I/L551I/Q495K/V520I)
HIV-1 PR = HIV-1 PR (Human immunodeficiency virus type 1 group M subtype B, UniProt P04585); details: cited from earlier work
PR dimers = details: fluorescent-tagged PR monomers; cited from earlier work

Structure (SMILES) | γ (factor of γKi) [1] | δ (factor of δKi) [1] | γ (factor of γKi) [2] | δ (factor of δKi) [2] | affinity for HIV-1 PR (HIV-1 PR) | dissociation rate (HIV-1 PR) | inhibition of the formation of PR dimers (PR dimers) | type of inhibition [1] | type of inhibition [2] | Ki^uncomp (uncompetitive inhibition constant) ([1]; from intercept replots of Lineweaver-Burk plots) | γKi smaller compared to Ki^uncomp ([1]; ratio Ki^uncomp / γKi)
CC(C)CN(C[C@@H](O)[C@H](Cc1ccccc1)NC(=O)O[C@H]1CO[C@H]2OCC[C@H]21)S(=O)(=O)c1ccc(N)cc1 [DRV, darunavir] | 1.2 | 0.5 | 1.7 | 0.3 | exceptionally high affinity | greatly decreased dissociation rate | inhibited the formation of PR dimers |  |  |  | 
CC(C)(C)NC(=O)[C@@H]1C[C@@H]2CCCC[C@@H]2CN1C[C@@H](O)[C@H](Cc1ccccc1)NC(=O)[C@H](CC(N)=O)NC(=O)c1ccc2ccccc2n1 [SQV, saquinavir] |  |  |  |  |  |  |  | purely competitive inhibition | purely competitive inhibition |  | 
CC(C)CN(C[C@@H](O)[C@H](Cc1ccccc1)NC(=O)O[C@H]1CCOC1)S(=O)(=O)c1ccc(N)cc1 [APV, amprenavir] | 0.22 | 0.23 | 0.45 | 0.28 |  |  | absence of APV inhibition |  |  | 28 nM | 4.5 fold
